The values that follow come from patent US8093265B2, “Bicycloheteroaryl compounds as P2X7 modulators and uses thereof” (Renovis, Inc., priority 2007, dated 2012).

The assay concerns the target T1, P2X7 receptor (Homo sapiens, UniProt Q99572).
T1 construct: host or cells: THP-1 cells differentiated with LPS and IFN-γ
T1 sequence (Q99572 1-595): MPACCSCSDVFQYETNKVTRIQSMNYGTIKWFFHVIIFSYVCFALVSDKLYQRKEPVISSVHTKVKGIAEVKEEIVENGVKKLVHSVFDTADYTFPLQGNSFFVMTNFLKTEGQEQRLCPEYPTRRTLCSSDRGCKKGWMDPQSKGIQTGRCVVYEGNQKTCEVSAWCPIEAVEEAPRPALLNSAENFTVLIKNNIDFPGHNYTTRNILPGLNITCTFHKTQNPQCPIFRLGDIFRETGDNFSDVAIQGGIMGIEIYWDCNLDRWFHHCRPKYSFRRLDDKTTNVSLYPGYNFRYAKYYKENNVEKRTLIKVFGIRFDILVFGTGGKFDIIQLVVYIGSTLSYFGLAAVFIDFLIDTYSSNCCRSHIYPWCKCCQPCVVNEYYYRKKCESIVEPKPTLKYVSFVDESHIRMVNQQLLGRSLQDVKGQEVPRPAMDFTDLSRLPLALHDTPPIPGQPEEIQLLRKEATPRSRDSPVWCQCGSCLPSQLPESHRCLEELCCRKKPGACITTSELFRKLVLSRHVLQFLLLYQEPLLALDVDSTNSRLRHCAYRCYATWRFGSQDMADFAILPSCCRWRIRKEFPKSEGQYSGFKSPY
The assay is described as follows: IL-1β release assay in differentiated THP-1 cells (Example 9). The format is cell-based. The settings on record: THP-1 cells differentiated with LPS and IFN-γ; 30 min pretreatment; BzATP 250 uM; IL-1β by ELISA. As for the experimental part:
THP-1 cells (ATCC Cat #285-IF-100) are plated in 96 well plates at a concentration of 200,000 cells per well and allowed to differentiate in RPMI-1640 media (ATCC Cat #30-2001) containing 10% FBS, 100 IU/mL penicillin, 100 ug/mL streptomycin, 100 ng/mL LPS and 100 ng/mL IFN-γ for 16 hours. Following differentiation, the cells are treated for an additional 2 hours in RPMI-1640 media containing 100 IU/mL penicillin, 100 ug/mL streptomycin and fresh LPS at 100 ng/mL. The cells are then pretreated for 30 minutes with the compound of interest at the appropriate concentration in RPMI media containing 100 IU/mL penicillin, 100 ug/mL streptomycin. Following the pretreatment 2′,3′-O-(4-benzoylbenzoyl)-adenosine 5′-triphosphate (Sigma Aldrich Cat # B6396) is added to a final concentration of 250 uM, and the cells are incubated for an additional 45 minutes. 30 uL of cell supernatant is then collected and IL-1β levels are determined via ELISA (R&D systems Cat. # HSLB50) according to manufacturer's recommendations using a Tecan Safire plate reader. Background adjusted IL-1β levels of drug treated and non-treated cells are used to calculate the percent inhibition.
The following compounds have been or can be prepared according to the synthetic methods described herein for example, methods A-AA1. The compounds set forth in Table 1 were tested for activity in a cellular model as described herein. Specifically, cells were pretreated with differing amounts of the compound under test and released IL-1β determined as in Example 9, above. Measurements were made and IC50 values, presented in Table 1, below, were determined by fitting the data to a four parameter logistic equation using GraphPad Prism software (GraphPad Software, Inc). The equation may be expressed by the following formula: Y=Bottom+(Top−Bottom)/(1+10^((Log EC50−X)*HillSlope)) where X is the logarithm of concentration, Y is the response and Y starts at Bottom and goes to Top with a sigmoid shape.
(In general: An ELISA detects its analyte on a solid surface through an enzyme-linked reagent.)

Broadly, the IC50 is the concentration that inhibits the measured activity by half.

For `C[C@H](C(=O)Nc1c(Cl)ccc2c(=O)n([C@H](C)C(N)=O)ccc12)c1ccc(Cl)cc1` [Compound 4, (R)-2-{6-Chloro-5-[(S)-2-(4-chloro-phenyl)-propionylamino]-1-oxo-1H-isoquinolin-2-yl}-propionamide], the IC50 was found to be 18 nM.
As for `COc1ccc2c(=O)n([C@H](C)C(N)=O)ccc2c1NC(=O)Cc1ccc(C(F)(F)F)cc1` [Compound 7, (R)-2-{6-Methoxy-1-oxo-5-[2-(4-trifluoromethyl-phenyl)-acetylamino]-1H-isoquinolin-2-yl}-propionamide], the 50% inhibitory concentration (IC50) came to 48 nM.
As for `C[C@@H](C(N)=O)n1ccc2c(NC(=O)Cc3ccc(C(F)(F)F)cc3)c(Cl)ccc2c1=O` [Compound 8, (S)-2-{6-Chloro-1-oxo-5-[2-(4-trifluoromethyl-phenyl)-acetylamino]-1H-isoquinolin-2-yl}-propionamide], the figure is 113 nM.
As for `COc1ccc2c(=O)n([C@H](C)CO)ccc2c1NC(=O)Cc1ccc(C(F)(F)F)c(F)c1` [Compound 9, 2-(3-Fluoro-4-trifluoromethyl-phenyl)-N-[2-((R)-2-hydroxy-1-methyl-ethyl)-6-methoxy-1-oxo-1,2-dihydro-isoquinolin-5-yl]-acetamide], the figure is 439 nM; as for `C[C@H](CO)n1ccc2c(NC(=O)Cc3ccc(Cl)c(Cl)c3)c(Cl)ccc2c1=O` [Compound 12, N-[6-Chloro-2-((R)-2-hydroxy-1-methyl-ethyl)-1-oxo-1,2-dihydro-isoquinolin-5-yl]-2-(3,4-dichloro-phenyl)-acetamide], 13 nM.
For `C[C@H](CO)n1ccc2c(NC(=O)Cc3ccc(C(F)(F)F)cc3F)c(Cl)ccc2c1=O` [Compound 14, N-[6-Chloro-2-((R)-2-hydroxy-1-methyl-ethyl)-1-oxo-1,2-dihydro-isoquinolin-5-yl]-2-(2-fluoro-4-trifluoromethyl-phenyl)-acetamide] the value was 31 nM; for `C[C@H](CO)n1ccc2c(NC(=O)Cc3ccc(C(F)(F)F)c(F)c3)c(C3CC3)ccc2c1=O` [Compound 17, N-[6-Cyclopropyl-2-((R)-2-hydroxy-1-methyl-ethyl)-1-oxo-1,2-dihydro-isoquinolin-5-yl]-2-(3-fluoro-4-trifluoromethyl-phenyl)-acetamide], 9 nM.
On to `O=C(Cc1cccc(C(F)(F)F)c1F)Nc1c(NCCO)ccc2c(=O)n(CCO)ccc12` [Compound 18, 2-(2-Fluoro-3-trifluoromethyl-phenyl)-N-[2-(2-hydroxy-ethyl)-6-(2-hydroxy-ethylamino)-1-oxo-1,2-dihydro-isoquinolin-5-yl]-acetamide], for which the IC50 is 1670 nM.
As for `O=C(Cc1cccc(C(F)(F)F)c1F)Nc1c(Cl)ccc2c(=O)n(CCO)ccc12` [Compound 20, N-[6-Chloro-2-(2-hydroxy-ethyl)-1-oxo-1,2-dihydro-isoquinolin-5-yl]-2-(2-fluoro-3-trifluoromethyl-phenyl)-acetamide], the half-inhibitory concentration (IC50) turned out to be 63 nM.
Regarding `Cc1ccc2c(=O)n(CCO)ccc2c1NC(=O)Cc1cccc(C(F)(F)F)c1F` [Compound 24, 2-(2-Fluoro-3-trifluoromethyl-phenyl)-N-[2-(2-hydroxy-ethyl)-6-methyl-1-oxo-1,2-dihydro-isoquinolin-5-yl]-acetamide], the IC50 turned out to be 65 nM.
As for `Cc1ccc2c(=O)n(CCO)ccc2c1NC(=O)Cc1ccc(F)c(C(F)(F)F)c1` [Compound 27, 2-(4-Fluoro-3-trifluoromethyl-phenyl)-N-[2-(2-hydroxy-ethyl)-6-methyl-1-oxo-1,2-dihydro-isoquinolin-5-yl]-acetamide], the figure is 7 nM; as for `Cc1ccc2c(=O)n([C@H](C)CO)ccc2c1NC(=O)CC12CC3CC(CC(C3)C1)C2` [Compound 31, 2-Adamantan-1-yl-N-[2-((R)-2-hydroxy-1-methyl-ethyl)-6-methyl-1-oxo-1,2-dihydro-isoquinolin-5-yl]-acetamide], 5 nM.
Take `Cc1ccc2c(=O)n([C@H](C)CO)ccc2c1NC(=O)CC1CCCCCC1` [Compound 32, 2-Cycloheptyl-N-[2-((R)-2-hydroxy-1-methyl-ethyl)-6-methyl-1-oxo-1,2-dihydro-isoquinolin-5-yl]-acetamide]: the 50% inhibitory concentration (IC50) came to 9 nM.
As for `Cc1ccc2c(=O)n([C@@H](C)CO)ccc2c1NC(=O)Cc1ccc(C(F)(F)F)c(F)c1` [Compound 33, (S)-2-(3-fluoro-4-(trifluoromethyl)phenyl)-N-(2-(1-hydroxypropan-2-yl)-6-methyl-1-oxo-1,2-dihydroisoquinolin-5-yl)acetamide], the figure is 53 nM; as for `C[C@@H](CO)n1ccc2c(NC(=O)Cc3ccc(C(F)(F)F)c(F)c3)c(Cl)ccc2c1=O` [Compound 34, N-[6-Chloro-2-((S)-2-hydroxy-1-methyl-ethyl)-1-oxo-1,2-dihydro-isoquinolin-5-yl]-2-(3-fluoro-4-trifluoromethyl-phenyl)-acetamide], 23 nM; as for `Cc1ccc2c(=O)n([C@H](C)CO)ccc2c1NC(=O)Cc1cccc(C(F)(F)F)c1` [Compound 35, N-[2-((R)-2-Hydroxy-1-methyl-ethyl)-6-methyl-1-oxo-1,2-dihydro-isoquinolin-5-yl]-2-(3-trifluoromethyl-phenyl)-acetamide], 2 nM.
For `C[C@H](CO)n1ccc2c(NC(=O)CC3CCCCCC3)c(Cl)ccc2c1=O` [Compound 36, N-[6-Chloro-2-((R)-2-hydroxy-1-methyl-ethyl)-1-oxo-1,2-dihydro-isoquinolin-5-yl]-2-cycloheptyl-acetamide] the value was 4 nM; for `Cc1ccc2c(=O)n([C@H](C)CO)ccc2c1NC(=O)CC1(O)CCCCCC1` [Compound 37, 2-(1-Hydroxy-cycloheptyl)-N-[2-((R)-2-hydroxy-1-methyl-ethyl)-6-methyl-1-oxo-1,2-dihydroisoquinolin-5-yl]-acetamide], 42 nM; for `CNCCn1ccc2c(NC(=O)Cc3ccc(C(F)(F)F)c(F)c3)c(C)ccc2c1=O` [Compound 38, 2-(3-Fluoro-4-trifluoromethyl-phenyl)-1-[6-methyl-2-(2-methylamino-ethyl)-1-oxo-1,2-dihydroisoquinolin-5-yl]-acetamide], 43 nM.
Regarding `C[C@H](CO)n1ccc2c(NC(=O)Cc3cccc(C(F)(F)F)c3)c(Cl)ccc2c1=O` [Compound 39, N-[6-Chloro-2-((R)-2-hydroxy-1-methyl-ethyl)-1-oxo-1,2-dihydro-isoquinolin-5-yl]-2-(3-trifluoromethyl-phenyl)-acetamide], the IC50 was 1 nM.
For `C[C@H](CO)n1ccc2c(C(=O)NCc3ccc(C(F)(F)F)nc3)c(Cl)ccc2c1=O` [Compound 43, 6-Chloro-2-((R)-2-hydroxy-1-methyl-ethyl)-1-oxo-1,2-dihydro-isoquinoline-5-carboxylic acid (6-trifluoromethyl-pyridin-3-ylmethyl)-amide], the 50% inhibitory concentration (IC50) is 310 nM.
For `C[C@H](CO)n1ccc2c(C(=O)NCc3ccccc3C(F)(F)F)c(Cl)ccc2c1=O` [Compound 46, 6-Chloro-2-((R)-2-hydroxy-1-methyl-ethyl)-1-oxo-1,2-dihydro-isoquinoline-5-carboxylic acid 2-trifluoromethyl-benzylamide] the value was 500 nM.
As for `C[C@H](CO)n1ccc2c(C(=O)NCC3CCCCCC3)c(Cl)ccc2c1=O` [Compound 48, 6-Chloro-2-((R)-2-hydroxy-1-methyl-ethyl)-1-oxo-1,2-dihydro-isoquinoline-5-carboxylic acid cycloheptylmethyl-amide], the figure is 0.2 nM; as for `Cc1ccc2c(=O)n([C@H](C)CO)ccc2c1C(=O)NCc1ccc(Cl)c(F)c1` [Compound 50, 2-((R)-2-Hydroxy-1-methyl-ethyl)-6-methyl-1-oxo-1,2-dihydro-isoquinoline-5-carboxylic acid 4-chloro-3-fluoro-benzylamide], 3 nM.
